# Experimental data published in the supplement of paper PMC10307832.
# Tests used:
# Experiment in all cases: relative viability (nuclei count vs DMSO), 5 days (fraction); higher = more cells survive
# [1] = compound: CN(C)C[C@@H]1CCn2cc(c3ccccc32)C2=C(C(=O)NC2=O)c2cn(c3ccccc23)CCO1 [Ruboxistaurin] + C[C@@H](Oc1cc(-c2cnn(C3CCNCC3)c2)cnc1N)c1c(Cl)ccc(F)c1Cl [Crizotinib] (partner 1 µM)
# Procedure, shortened: (§1)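 Five library-drug doses in √10 steps were combined with a fixed anchor-drug dose, or a single drug was given alone, by pin tool to lung cancer cell lines in 1536-well plates the day after seeding. Nuclei were stained and counted after 5 days. Relative viability is the nuclei count in treated wells over that in vehicle wells, taken as the median of duplicate plates.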
# [2] = compound: CN(C)C[C@@H]1CCn2cc(c3ccccc32)C2=C(C(=O)NC2=O)c2cn(c3ccccc23)CCO1 [Ruboxistaurin] + CS(=O)(=O)N1CCN(Cc2cc3nc(-c4cccc5[nH]ncc45)nc(N4CCOCC4)c3s2)CC1 [Pictilisib] (partner 1 µM)
# Procedure, shortened: as §1
# [3] = compound: CN(C)C[C@@H]1CCn2cc(c3ccccc32)C2=C(C(=O)NC2=O)c2cn(c3ccccc23)CCO1 [Ruboxistaurin] + Cc1nc(NC(=O)N2CCC[C@H]2C(N)=O)sc1-c1ccnc(C(C)(C)C(F)(F)F)c1 [Alpelisib] (partner 2 µM)
# Procedure, shortened: as §1
# [4] = compound: CN(C)C[C@@H]1CCn2cc(c3ccccc32)C2=C(C(=O)NC2=O)c2cn(c3ccccc23)CCO1 [Ruboxistaurin] + O=C(c1cc(Cc2n[nH]c(=O)c3ccccc23)ccc1F)N1CCN(C(=O)C2CC2)CC1 [Olaparib] (partner 8 µM)
# Procedure, shortened: as §1
# [5] = compound: CN(C)C[C@@H]1CCn2cc(c3ccccc32)C2=C(C(=O)NC2=O)c2cn(c3ccccc23)CCO1 [Ruboxistaurin] + C[C@]1(O)C[C@@H](c2nc(-c3ccc4ccc(-c5ccccc5)nc4c3)c3c(N)nccn32)C1 [Linsitinib] (partner 1 µM)
# Procedure, shortened: as §1
# [6] = compound: CN(C)C[C@@H]1CCn2cc(c3ccccc32)C2=C(C(=O)NC2=O)c2cn(c3ccccc23)CCO1 [Ruboxistaurin] + CS(=O)(=O)CCNCc1ccc(-c2ccc3ncnc(Nc4ccc(OCc5cccc(F)c5)c(Cl)c4)c3c2)o1 [Lapatinib] (partner 2 µM)
# Procedure, shortened: as §1
# [7] = compound: CN(C)C[C@@H]1CCn2cc(c3ccccc32)C2=C(C(=O)NC2=O)c2cn(c3ccccc23)CCO1 [Ruboxistaurin] + CC(C)C[C@H](NC(=O)[C@H](Cc1ccccc1)NC(=O)c1cnccn1)B(O)O [Bortezomib] (partner 0.002 µM)
# Procedure, shortened: as §1
# [8] = compound: CN(C)C[C@@H]1CCn2cc(c3ccccc32)C2=C(C(=O)NC2=O)c2cn(c3ccccc23)CCO1 [Ruboxistaurin] + COc1cc2c(Oc3ccc(NC(=O)C4(C(=O)Nc5ccc(F)cc5)CC4)cc3F)ccnc2cc1OCCCN1CCOCC1 [Foretinib] (partner 0.25 µM)
# Procedure, shortened: as §1
# [9] = compound: CN(C)C[C@@H]1CCn2cc(c3ccccc32)C2=C(C(=O)NC2=O)c2cn(c3ccccc23)CCO1 [Ruboxistaurin] + CC1(C)CCC(c2ccc(Cl)cc2)=C(CN2CCN(c3ccc(C(=O)NS(=O)(=O)c4ccc(N[C@H](CCN5CCOCC5)CSc5ccccc5)c(S(=O)(=O)C(F)(F)F)c4)cc3)CC2)C1 [Navitoclax] (partner 0.5 µM)
# Procedure, shortened: as §1
# [10] = compound: CN(C)C[C@@H]1CCn2cc(c3ccccc32)C2=C(C(=O)NC2=O)c2cn(c3ccccc23)CCO1 [Ruboxistaurin]
# Procedure, shortened: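 Viability was read as treated-well nuclei divided by vehicle-well nuclei, using the median across plates. Lung cancer cell lines in 1536-well plates were kept overnight at 37 °C, pinned with five √10-spaced library-drug doses, and after 5 days were Hoechst-stained, imaged at 4× and counted in MetaXpress. Plates passed only with control CV below 25% and at least one doubling.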
# [11] = compound: CN(C)C[C@@H]1CCn2cc(c3ccccc32)C2=C(C(=O)NC2=O)c2cn(c3ccccc23)CCO1 [Ruboxistaurin] + CCNC(=O)c1noc(-c2cc(C(C)C)c(O)cc2O)c1-c1ccc(CN2CCOCC2)cc1 [Luminespib] (partner 0.01 µM)
# Procedure, shortened: as §1
# [12] = compound: CN(C)C[C@@H]1CCn2cc(c3ccccc32)C2=C(C(=O)NC2=O)c2cn(c3ccccc23)CCO1 [Ruboxistaurin] + N=C(N)NC(=N)NCCc1ccccc1 [Phenformin] (partner 250 µM)
# Procedure, shortened: as §1
# [13] = compound: CN(C)C[C@@H]1CCn2cc(c3ccccc32)C2=C(C(=O)NC2=O)c2cn(c3ccccc23)CCO1 [Ruboxistaurin] + Nc1nc2[nH]cc(CCc3ccc(C(=O)N[C@@H](CCC(=O)O)C(=O)O)cc3)c2c(=O)[nH]1 [Pemetrexed] (partner 0.2 µM)
# Procedure, shortened: as §1
# [14] = compound: CN(C)C[C@@H]1CCn2cc(c3ccccc32)C2=C(C(=O)NC2=O)c2cn(c3ccccc23)CCO1 [Ruboxistaurin] + COc1cccc2cc(-c3nc([C@H]4CC[C@H](C(=O)O)CC4)n4ncnc(N)c34)[nH]c12 [OSI-027] (partner 0.5 µM)
# Procedure, shortened: as §1
# [15] = compound: CN(C)C[C@@H]1CCn2cc(c3ccccc32)C2=C(C(=O)NC2=O)c2cn(c3ccccc23)CCO1 [Ruboxistaurin] + Cc1nc(Nc2ncc(C(=O)Nc3c(C)cccc3Cl)s2)cc(N2CCN(CCO)CC2)n1 [Dasatinib] (partner 0.075 µM)
# Procedure, shortened: as §1
cell line,measurement,setting,value
NCI-H1299,relative viability,[1]; first compound 0.08 µM,0.921
same,relative viability,[1]; first compound 0.8 µM,0.978
same,relative viability,[1]; first compound 2.53 µM,0.99
same,relative viability,[1]; first compound 8 µM,1.02
same,relative viability,[2]; first compound 0.08 µM,0.841
same,relative viability,[2]; first compound 0.8 µM,0.51
same,relative viability,[2]; first compound 2.53 µM,0.731
same,relative viability,[2]; first compound 8 µM,0.45
same,relative viability,[3]; first compound 0.08 µM,1.08
same,relative viability,[3]; first compound 0.8 µM,1.07
same,relative viability,[3]; first compound 2.53 µM,1.07
same,relative viability,[3]; first compound 8 µM,1.16
same,relative viability,[4]; first compound 0.08 µM,0.95
same,relative viability,[4]; first compound 0.8 µM,1.02
same,relative viability,[4]; first compound 2.53 µM,0.976
same,relative viability,[4]; first compound 8 µM,1.08
same,relative viability,[5]; first compound 0.08 µM,1.03
same,relative viability,[5]; first compound 0.8 µM,0.921
same,relative viability,[5]; first compound 2.53 µM,0.951
same,relative viability,[5]; first compound 8 µM,1.15
same,relative viability,[6]; first compound 0.08 µM,0.997
same,relative viability,[6]; first compound 0.8 µM,0.931
same,relative viability,[6]; first compound 2.53 µM,0.993
same,relative viability,[6]; first compound 8 µM,0.962
same,relative viability,[7]; first compound 0.08 µM,1.05
same,relative viability,[7]; first compound 0.8 µM,1.02
same,relative viability,[7]; first compound 2.53 µM,1.05
same,relative viability,[7]; first compound 8 µM,1.08
same,relative viability,[8]; first compound 0.08 µM,1.11
same,relative viability,[8]; first compound 0.8 µM,1.11
same,relative viability,[8]; first compound 2.53 µM,1.16
same,relative viability,[8]; first compound 8 µM,1.21
same,relative viability,[9]; first compound 0.08 µM,1.08
same,relative viability,[9]; first compound 0.8 µM,1.01
same,relative viability,[9]; first compound 2.53 µM,1.07
same,relative viability,[9]; first compound 8 µM,1.06
same,relative viability,[10]; 0.08 µM,1.06
same,relative viability,[10]; 0.8 µM,1
same,relative viability,[10]; 2.53 µM,1.01
same,relative viability,[10]; 8 µM,1.09
NCI-H1563,relative viability,[1]; first compound 0.08 µM,0.947
same,relative viability,[1]; first compound 0.8 µM,0.873
same,relative viability,[1]; first compound 2.53 µM,0.938
same,relative viability,[1]; first compound 8 µM,0.741
same,relative viability,[2]; first compound 0.08 µM,0.626
same,relative viability,[2]; first compound 0.8 µM,0.662
same,relative viability,[2]; first compound 2.53 µM,0.601
same,relative viability,[2]; first compound 8 µM,0.618
same,relative viability,[3]; first compound 0.08 µM,0.972
same,relative viability,[3]; first compound 0.8 µM,0.867
same,relative viability,[3]; first compound 2.53 µM,1.05
same,relative viability,[3]; first compound 8 µM,0.849
same,relative viability,[11]; first compound 0.08 µM,0.507
same,relative viability,[11]; first compound 0.8 µM,0.544
same,relative viability,[11]; first compound 2.53 µM,0.483
same,relative viability,[11]; first compound 8 µM,0.52
same,relative viability,[5]; first compound 0.08 µM,1.34
same,relative viability,[5]; first compound 0.8 µM,1.14
same,relative viability,[5]; first compound 2.53 µM,1.37
same,relative viability,[5]; first compound 8 µM,1.16
same,relative viability,[6]; first compound 0.08 µM,1.06
same,relative viability,[6]; first compound 0.8 µM,0.945
same,relative viability,[6]; first compound 2.53 µM,1.04
same,relative viability,[6]; first compound 8 µM,0.952
same,relative viability,[12]; first compound 0.08 µM,0.67
same,relative viability,[12]; first compound 0.8 µM,0.654
same,relative viability,[12]; first compound 2.53 µM,0.702
same,relative viability,[12]; first compound 8 µM,0.693
same,relative viability,[13]; first compound 0.08 µM,0.831
same,relative viability,[13]; first compound 0.8 µM,0.724
same,relative viability,[13]; first compound 2.53 µM,0.987
same,relative viability,[13]; first compound 8 µM,0.656
same,relative viability,[7]; first compound 0.08 µM,0.871
same,relative viability,[7]; first compound 0.8 µM,0.763
same,relative viability,[7]; first compound 2.53 µM,0.933
same,relative viability,[7]; first compound 8 µM,0.775
same,relative viability,[14]; first compound 0.08 µM,0.796
same,relative viability,[14]; first compound 0.8 µM,0.748
same,relative viability,[14]; first compound 2.53 µM,0.694
same,relative viability,[14]; first compound 8 µM,0.66
same,relative viability,[8]; first compound 0.08 µM,1.03
same,relative viability,[8]; first compound 0.8 µM,0.892
same,relative viability,[8]; first compound 2.53 µM,0.946
same,relative viability,[8]; first compound 8 µM,0.856
same,relative viability,[15]; first compound 0.08 µM,0.499
same,relative viability,[15]; first compound 0.8 µM,0.502
same,relative viability,[15]; first compound 2.53 µM,0.465
same,relative viability,[15]; first compound 8 µM,0.404
same,relative viability,[10]; 0.08 µM,1
same,relative viability,[10]; 0.8 µM,0.947
same,relative viability,[10]; 2.53 µM,1.07
same,relative viability,[10]; 8 µM,0.886
